Data published in patent US4312883A, “Furocoumarin for the photochemotherapy of psoriasis and related skin diseases” (Consiglio Nazionale delle Ricerche, priority 1979, dated 1982).
Where a name gives a salt, the structure may show the parent alone. Read-outs that look alike come from different tables or passages of the source.

What was measured:
DNA [1] = assay: Dark complex formation (intercalation) with DNA in the ground state, binding parameters; set-up: K (association constants) of the complexes with DNA: unit not given here; settings: for K (association constants) of the complexes with DNA / 1/n (frequency of binding sites): in vitro, ground state; for K (association constants) of the complexes with DNA: McGhee and Von Hippel method; for 1/n (frequency of binding sites): molecules bound per nucleotide; for 1/n (frequency of binding sites), relative / K (association constants), relative: relative (ang = 100)
Text: Dark complex formation: It is known from F. Dall'Acqua, et al. Chem.-Biol. Interactions 21,103 (1978) that the intercalated complex formed by furocoumarins with DNA strongly affects the successive photoaddition increasing the rate of photobinding. […] These parameters have been determined according to the method of McChee and Von Hippel, J.Mol.Biol, 86, 469 (1974).
(a) Determined according to Mc Ghee and Von Hippel, J. Mol. Biol.,

DNA [2] = assay: Photobinding to DNA, rate constants of the photoreactions; format: biochemical; settings: for Rate constants of the photoreactions with DNA: in vitro, UV-A irradiated; for Rate constants of the photoreactions with DNA, relative: relative (ang = 100); for photobinding capacity to DNA (in words): versus angelicin
Text: (b) Determined according to F. Dall'Acqua, S. Marciani, F. Zambon and G.
Rodighiero, Photochem. Photobiol., 29,489(1979).
Photobinding capacity to DNA: The introduction of one or two methyl groups in the molecule of angelicin leads to a strong increase of the photobinding to DNA; see Table II. […] Photobiol., 29, 489 (1979).

[3] = system: DNA synthesis in Ehrlich ascites tumor cells; assay: Inhibition of DNA synthesis (and DNA and RNA synthesis) on irradiation at 365 nm; format: cell-based; settings: for inhibition of DNA synthesis, relative: relative (ang = 100)
Text: (§1) Photobiological activity: A significant test for assessing photobiological activity of alkylangelicins is the study of their capacity to inhibit DNA and RNA synthesis in Ehrlich ascites tumor cells. In Table III the capacity of inhibition is expressed as ID50, that is the irradiation does, in terms of quanta at 365 nm, necessary to inhibit in these cells the 50% of the DNA and RNA synthesis in the presence of a constant amount of alkylangelicin. […] Moreover, in general it can be observed that in this simple biological system a close correlation exists between photobiological activity and the capacity to induce photochemical lesions in DNA, that is photoreactivity.

[4] = system: RNA synthesis in Ehrlich ascites tumor cells; assay: Inhibition of RNA synthesis on irradiation at 365 nm; format: cell-based; settings: relative (ang = 100)
Text: as §1

epidermal DNA synthesis [5] = assay: Inhibition of epidermal DNA synthesis in the mouse in vivo after topical application and UV-A irradiation; settings: light or radiation study, 0.01% methanol solutions, UV-A 9 J/cm^2, read-out: Percent inhibition ± standard error of epidermal DNA synthesis
Procedure: DNA samples were dissolved in water and their specific radioactivity determined.
Each drug substance was studied using at least six mice.

DNA [6] = settings: (psr = 100); footnote (c), reference compounds; cited from earlier work
skin = assay: Relative skin phototoxicity; settings: (psr = 100)
DNA [7] = assay: Capacity to form inter-strand cross-linkages in DNA; format: biochemical; settings: (psr = 100)
Procedure: All these compounds were not suitable to photoinduce in DNA inter-strand cross-linkages. […] These tests were carried out according to the method of F. Bordin et al., Photochem. Photobiol., 29,1063 (1979).

Solubility = format: physicochemical
epidermal DNA synthesis [8] = assay: Inhibition of the synthesis of epidermal DNA of the mouse in vivo after oral administration and UV-A irradiation; settings: oral 0.25 g/Kg, UV-A 9 J/cm^2 after two hours
Text: Considering that the topical skin tests carried out on mice to evaluate the effectiveness of these substances has yielded data which correlate well with the clinical data, such a test conveniently modified has been adopted to evaluate the effectiveness of the alkylangelicins after oral administration followed by UV-A irradiation.
In this connection experiments have been conducted using mice 20±2 g in weight, that were starved for three hours before oral administration of the alkylangelicins. Groups of 5 mice were fed a suspension of 0.5% methylcellulose in water containing the alkylangelicins of the invention at a dosage of 0.25 g/Kg. The animals were kept in the dark for two hours, that is for the time necessary for absorption, systemic distribution and localization of the drug at the level of the skin. The animals were then irradiated with UV-A light, 9 J/cm^2. Later the animals were sacrificed and the inhibition of the epidermal DNA synthesis was tested; the results obtained are reported in Table VI. The skin on the back, protected from light by a dark paper, was assumed as a control. As a reference 8-MOP, used under the same experimental conditions, was also tested. The significant activity of the alkylangelicins according to the present invention, higher than that of 8-MOP, in inhibiting the epidermal DNA synthesis in mice upon oral administration allows one to consider these compounds as also being effective for oral administration to humans for photochemotherapy of psoriasis and of other skin diseases that are characterized by cellular hyperproliferation.

psoriasis = assay: Topical photochemotherapy of psoriasis in patients; format: in vivo, human; settings: for No. of patients with Excellent result / No. of patients with Fair result / No. of patients with Good result / No. of patients with Poor result: topical 0.1% w/v + UV-A; for No. of patients with Excellent result: Excellent = 90% clearance; for No. of patients with Fair result: Fair = 50-70%; for No. of patients with Good result: Good = 70-90%; for No. of patients with Poor result: Poor 40%
Text: Clinical data: The effectiveness of certain representative alkylangelicins according to the present invention, specifically 5-methylangelicin, 4,5'-dimethylangelicin, 4'-hydroxymethyl-4,5'-dimethylangelicin, 4'-hydroxymethyl-4,5'-dimethylangelicin and 4,5-dimethylangelicin, has been tested by measuring their capacity to resolve psoriasis in various patients. For a direct comparison the efficacy of the parent unsubstituted angelicin and that of three very effective linear furocoumarins, that is 8-methoxypsoralen (8-MOP), 5-methoxypsoralen (5-MOP), and 4,5',8-trimethylpsoralen (TMP) were also tested.
In each treatment four areas of the affected skin were used;
(a) In the first area an alcohol lotion, containing 10% glycerine, of the tested compound (0.1% w/v) was applied until a concentration of […] was reached then left to evaporate by the heat of the body. After half an hour the area was irradiated with high intensity UV-A emitting low pressure mercury fluorescent lamps with a wavelength of 320-400 nm. The irradiation doses were selected in the range of 4.5-13 J/cm^2 for each application as a function of the sensitivity of the skin of the patients; when the skin sensitivity was higher, the light doses were lower and vice versa.
(b) A second area was treated with an alcohol solution of the drug as in (a) but it was covered and maintained in the dark.
(c) A third area, where the drug was not applied, was irradiated as in (a) but in general with higher UV-A doses.
(d) A fourth area was not treated at all, neither with the drug, not with UV-A.
The treatment with the alkylangenlicins referred to above was repeated 5 time a week for two or more weeks; the total number of treatments was between 8 and 20 per subject. In some cases, as for instance with 5-methylangelicin, a good clearing of psoriasis was observed after 8 treatments.
In order to avoid induction of photosensitization processes such as redness and erythema in the reference tests made with the linear furocoumarins 8-MOP, 5-MOP, TMP, lower light doses were used than in the case of alkylangelicins, the treatments were repeated at a frequency of no more than three times a week.

melamin pigmentation = settings: Table I; cited from earlier work
[9] = cited from earlier work
DNA [10] = settings: cited from earlier work
DNA synthesis = settings: Table I; cited from earlier work
[11] = known furocoumarins, Table I; cited from earlier work
[12] = Table I; cited from earlier work
Acute toxicity in mice = settings: mouse, in vivo, po
[13] = system: Salmonella typhimurium TA 100; assay: Ames test; format: cell-based; settings: Salmonella typhimurium TA 100 his G46 (uvrB^- rfa) pKM101; versus 4,5'-dimethylangelicin

| photobinding capacity to DNA (in words) (DNA [2]) | water solubility (Solubility) | Structure (SMILES) | K (association constants) of the complexes with DNA (DNA [1]) | 1/n (frequency of binding sites) (DNA [1]) | 1/n (frequency of binding sites), relative (DNA [1]) | K (association constants), relative (DNA [1]) | Rate constants of the photoreactions with DNA (DNA [2]) | Rate constants of the photoreactions with DNA, relative (DNA [2]) | inhibition of DNA synthesis, relative [3] | inhibition of RNA synthesis, relative [4] | inhibition in vivo at 0.01 % (epidermal DNA synthesis [5]) | capacity to form interstrand cross-linkages (DNA [6]) | Relative skin phototoxicity (skin) | capacity to form interstrand cross-linkages (DNA [7]) | Percent inhibition ± standard error of epidermal DNA synthesis (epidermal DNA synthesis [8]) | No. of patients with Excellent result (psoriasis) | No. of patients with Fair result (psoriasis) | No. of patients with Good result (psoriasis) | No. of patients with Poor result (psoriasis) | LD50 (Acute toxicity in mice) | also measured |
| --- | --- | --- | --- | --- | --- | --- | --- | --- | --- | --- | --- | --- | --- | --- | --- | --- | --- | --- | --- | --- | --- |
|  |  | O=c1ccc2cc3ccoc3cc2o1 [psoralen, reference compound] | 400 | 0.108 | 171 | 71.4 | 3.8 K × 10^-2 × min^-1 | 345 | 275 | 166 | 47.8 ± 7.9% | 100 | 100 |  |  |  |  |  |  |  |  |
| lower than that of angelicin | water soluble | Cc1oc2ccc3c(C)cc(=O)oc3c2c1CN [4,5'-dimethyl-4'-aminomethylangelicin hydrochloride] | 16300 | 0.255 | 404 | 2910 | 0.8 K × 10^-2 × min^-1 | 72 | 25 | 23.3 |  |  | 0 | 0 |  |  |  |  |  |  | capacity to inhibit the DNA and RNA synthesis (in words) ([3]; Ehrlich ascites tumor cells, versus angelicin): lower than that of angelicin |
|  |  | COc1c2occc2cc2ccc(=O)oc12 [8-MOP, 8-methoxypsoralen, reference compound] | 740 | 0.128 | 203 | 132 | 2.3 K × 10^-2 × min^-1 | 209 | 249 | 93 | 61 ± 1.6% | 63 | 71 |  | 39.1 ± 3.7% | 3 patients | 2 patients | 3 patients | 2 patients | 800 mg/kg | Stimulation of melamin pigmentation (melamin pigmentation): strong, well known; Carcinogenicity (oral) ([9]; oral): weak; Carcinogenicity (topical) ([9]; topical): strong; DNA intercalation property (DNA [10]; Table I): strong; Interstrand cross-linking induction in DNA (DNA [10]; Table I): strong, well known; Monoadduct forming property (DNA [10]; Table I): known, strong; Photobinding capacity to DNA (DNA [10]; known furocoumarins): known, strong; DNA synthesis inhibiting property (DNA synthesis): known, strong; Photosensitizing activity [11]: known, strong; Mutagenicity [12]: known, strong |
|  |  | Cc1cc2occc2c2oc(=O)ccc12 [5-methylangelicin] | 1560 | 0.071 | 112 | 278 | 3.41 K × 10^-2 × min^-1 | 298 | 275 | 281 | 47.5 ± 1.19% |  | 0 | 0 |  | 2 patients | 0 patients | 5 patients | 0 patients | 2000 mg/kg | mutagenic activity (Ames test) [13]: of the same order of magnitude as that of 4,5'-dimethylangelicin; efficacy in psoriasis patients (in words) (psoriasis; topical + UV-A): very active, probably more active than the same amount of 8-MOP; number of treatments to good clearing of psoriasis (psoriasis; topical + UV-A, 5 times a week, in some cases): 8 treatments |
|  |  | Cc1cc2c(ccc3c(C)cc(=O)oc32)o1 [4,5'-dimethylangelicin] | 1410 | 0.094 | 149 | 252 | 4.0 K × 10^-2 × min^-1 | 363 | 230 | 172 | 37.6 ± 4.9% |  | 0 | 0 | 51.0 ± 8.0% | 0 patients | 3 patients | 1 patients | 0 patients | 2500 mg/kg |  |
| strongly increased photobinding capacity | water soluble | Cc1oc2ccc3c(C)cc(=O)oc3c2c1COCCN(C)C [4,5'-dimethyl-4'-N,N-dimethylaminoethoxymethylangelicin] | > 10000 | > 0.15 | > 230 | > 1700 |  |  | 290 | 162 | 29.4 ± 16.2% |  | 0 | 0 |  |  |  |  |  |  | increase of K (affinity towards DNA) (DNA [1]; on introduction of a cationic moiety in addition to the two methyl groups): more than 20 times |
